Experimental data taken from US11319285B2, “N-acylated methionine sulfoxides as food flavouring compounds” (Givaudan S.A., priority 2015, dated 2022).

Key:
[1] = Expert taster comparison in a cheese onion crisp; conditions: 10 ppb in crisp with proprietary cheese onion powder flavoring @ 6%
Method: (§1) Samples were evaluated by expert tasters. Tasters were asked to describe the samples focusing on authentic taste, mouthfeel, fullness, salty-ness, salivation, umami, sweetness, juiciness, richness, long lastingness and fattiness
Comparison in a Cheese Onion Crisp
Base is a crisp with proprietary cheese onion powder flavoring @ 6%

[2] = Expert taster comparison in Campbell's French onion soup; conditions: 10 ppb in Campbell's French onion soup
Method: as §1
Base is Campbell's® French onion soup

[3] = Expert taster comparison in UNOX 'Franse uiensoep' onion soup; conditions: 10 ppb in UNOX 'Franse uiensoep'
Method: as §1
Base is UNOX ‘Franse uiensoep’

[4] = Expert taster comparison in a cheese sauce; conditions: 0.5 ppm in Maggie Saus Base with 0.05 g ethanol
Method: Samples were evaluated by expert tasters. Tasters were asked to describe the samples focusing on authentic taste, mouthfeel, fullness, salty-ness, salivation, umami, sweetness, juiciness, richness, long lastingness and fattiness.
Comparison in a Cheese Sauce
Base is a Maggie Saus Base with 0.05 g ethanol

Compound | taste description versus base [1] | taste description versus base [2] | taste description versus base [3] | taste description versus base [4]
CCCCCCCC/C=C\CCCCCCCC(=O)N[C@@H](CC[S+](C)[O-])C(=O)O (stereo partly drawn) [Met-SO C18:1, (2S)-4-(methylsulfinyl)-2-oleamidobutanoic acid] | salt/taste level enhanced; onion character more fried | slightly stronger in salt; onion character slightly enhanced | slightly stronger in salt; onion character increased | 
CCCCCCCC/C=C\CCCCCCCC(=O)N[C@H](C[S+](C)[O-])C(=O)O (stereo partly drawn) [(2S)-3-(methylsulfinyl)-2-oleamidopropanoic acid] |  |  |  | salt/umami/fullness/cheesiness level enhanced
